From patent publication US8389523B2, “Substituted quinoxaline and an agrochemical composition thereof” (Kumiai Chemical Industry Co., Ltd., priority 2007, dated 2013)

Key:
Assay type in all cases: in vivo
Parameters in all cases: scale not given here
Amaranthus viridis L. [1] = experiment: Herbicidal effects in upland field soil treatment (Test Example 2); conditions: 1000 g active ingredient per hectare, 21st day after treatment, criteria of Table 138
Procedure, shortened: (§1)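 Seeds sown in upland soil and covered; surface sprayed with water-diluted wettable powder, 1000 g a.i./ha, spray volume 1000 L/ha. Greenhouse growth, visual herbicidal rating at day 21.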

[2] = tested on: Abutilon theophrasti medicus; experiment: as above; conditions: 1000 g active ingredient per hectare, 21st day after treatment, criteria of Table 138
Procedure, shortened: as §1

[3] = tested on: Echinochloa crus-galli (L.) P. Beauv. var. crus-galli; experiment: Herbicidal effects in upland field foliar treatment (Test Example 3); conditions: criteria of Table 138; for herbicidal effect (index) on Echinochloa crus-galli (L.) P. Beauv. var. crus-galli: 1000 g active ingredient per hectare, 14th day after treatment; for herbicidal effects on Echinochloa crus-galli (L.) P. Beauv. var. crus-galli: 1000 g of the active ingredient per hectare, 14th day after the treatment, wettable powder
Procedure, shortened: (§2)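 Greenhouse pot test, upland soil; 2-wk-old plants sprayed from above with water-diluted wettable powder (1000 L/ha spray volume, 1000 g a.i./ha). Regrown in greenhouse; visual herbicidal score on day 14 post-treatment.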

Amaranthus viridis L. [4] = experiment: as above; conditions: criteria of Table 138; for herbicidal effect (index) on Amaranthus viridis L.: 1000 g active ingredient per hectare, 14th day after treatment; for herbicidal effects on Amaranthus viridis L.: 1000 g of the active ingredient per hectare, 14th day after the treatment, wettable powder
Procedure, shortened: as §2

[5] = tested on: Abutilon theophrasti medicus; experiment: as above; conditions: criteria of Table 138; for herbicidal effect (index) on Abutilon theophrasti medicus: 1000 g active ingredient per hectare, 14th day after treatment; for herbicidal effects on Abutilon theophrasti medicus: 1000 g of the active ingredient per hectare, 14th day after the treatment, wettable powder
Procedure, shortened: as §2

[6] = tested on: Scirpus juncoides Roxb. var. ohwianus. T. Koyama; experiment: Herbicidal effects in paddy field soil treatment (Test Example 1); conditions: for Herbicidal effects index, Scirpus juncoides Roxb. var. ohwianus. T. Koyama: paddy field soil treatment, 1000 g of the active ingredient per hectare, wettable powder added dropwise on water surface, 21st day after treatment; for herbicidal effect (index) on Scirpus juncoides Roxb. var. ohwianus. T. Koyama: paddy field soil treatment (Test Example 1), criteria of Table 138
Procedure, shortened: (§3)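 Paddy soil pre-emergence test: seeds sown, flooded 3 cm; next day wettable powder in water applied dropwise to water surface, 1000 g a.i./ha; greenhouse; effect rated visually on scale at 21 d post-treatment.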

[7] = tested on: Monochoria vaginalis (Burm. f.) Presl var. plantaginea (Roxb.) Solms-Laub.; experiment: as above; conditions: for Herbicidal effects index, Monochoria vaginalis (Burm. f.) Presl var. plantaginea (Roxb.) Solms-Laub.: paddy field soil treatment, 1000 g of the active ingredient per hectare, wettable powder added dropwise on water surface, 21st day after treatment; for herbicidal effect (index) on Monochoria vaginalis (Burm. f.) Presl var. plantaginea (Roxb.) Solms-Laub.: paddy field soil treatment (Test Example 1), criteria of Table 138
Procedure, shortened: as §3

[8] = tested on: Echinochloa oryzicola Vasing; experiment: as above; conditions: for Herbicidal effects index, Echinochloa oryzicola Vasing: paddy field soil treatment, 1000 g of the active ingredient per hectare, wettable powder added dropwise on water surface, 21st day after treatment; for herbicidal effect (index) on Echinochloa oryzicola Vasing: paddy field soil treatment (Test Example 1), criteria of Table 138
Procedure, shortened: as §3

| Structure (SMILES) | herbicidal effect (index) on Amaranthus viridis L. (Amaranthus viridis L. [1]) | herbicidal effect (index) on Abutilon theophrasti medicus [2] | herbicidal effect (index) on Echinochloa crus-galli (L.) P. Beauv. var. crus-galli [3] | herbicidal effect (index) on Amaranthus viridis L. (Amaranthus viridis L. [4]) | herbicidal effect (index) on Abutilon theophrasti medicus [5] | Herbicidal effects index, Scirpus juncoides Roxb. var. ohwianus. T. Koyama [6] | Herbicidal effects index, Monochoria vaginalis (Burm. f.) Presl var. plantaginea (Roxb.) Solms-Laub. [7] | Herbicidal effects index, Echinochloa oryzicola Vasing [8] | herbicidal effects on Echinochloa crus-galli (L.) P. Beauv. var. crus-galli [3] | herbicidal effects on Amaranthus viridis L. (Amaranthus viridis L. [4]) | herbicidal effects on Abutilon theophrasti medicus [5] | herbicidal effect (index) on Scirpus juncoides Roxb. var. ohwianus. T. Koyama [6] | herbicidal effect (index) on Monochoria vaginalis (Burm. f.) Presl var. plantaginea (Roxb.) Solms-Laub. [7] | herbicidal effect (index) on Echinochloa oryzicola Vasing [8] |
| --- | --- | --- | --- | --- | --- | --- | --- | --- | --- | --- | --- | --- | --- | --- |
| Cn1c(=O)c(C(=O)C2=C(O)CCCC2=O)nc2ccc(F)cc21 [I-221] | 5 | 5 | 4 | 5 | 5 | 5 | 5 | 5 |  |  |  |  |  |  |
| O=C1CCCC(O)=C1C(=O)c1nc2ccccc2n(-c2ccc3c(c2)CCO3)c1=O [I-201] | 5 | 4 | 5 | 5 | 4 | 5 | 5 | 5 |  |  |  |  |  |  |
| Cc1ccc(-n2c(=O)c(C(=O)C3=C(O)CCCC3=O)nc3ccccc32)cc1 [II-21] | 5 | 5 |  |  |  | 5 | 5 | 5 | 5 | 5 | 5 |  |  |  |
| O=C(C1=C(O)C2CCC(C2)C1=O)c1nc2ccccc2n(COCC(F)(F)F)c1=O (stereo not drawn) [I-62] | 5 | 5 | 5 | 5 | 5 | 5 | 5 | 5 |  |  |  |  |  |  |
| Cc1cccc(-n2c(=O)c(C(=O)C3=C(O)CCCC3=O)nc3ccccc32)c1 [II-20] | 5 | 5 |  |  |  | 5 | 5 | 5 | 5 | 5 | 5 |  |  |  |
| O=C1CCCC(O)=C1C(=O)c1nc2ccccc2n(-c2cccc(Cl)c2)c1=O [II-11] | 5 | 5 | 5 | 5 | 5 | 5 | 5 | 5 |  |  |  |  |  |  |
| CCc1cccc(-n2c(=O)c(C(=O)C3=C(O)CCCC3=O)nc3ccccc32)c1 [II-23] | 5 | 5 |  |  |  | 5 | 5 | 5 | 5 | 5 | 5 |  |  |  |
| CC(=O)Cn1c(=O)c(C(=O)C2=C(O)CCCC2=O)nc2ccccc21 [Compound I-94] | 4 | 5 | 5 | 5 | 5 | 5 | 5 | 5 |  |  |  |  |  |  |
| O=C1CCCC(O)=C1C(=O)c1nc2ccccc2n(-c2ccc3c(c2)COC3)c1=O [II-224] | 5 | 5 |  |  |  | 5 | 5 | 4 | 5 | 5 | 5 |  |  |  |
| CCCn1c(=O)c(C(=O)C2=C(O)CCCC2=O)nc2cccnc21 [III-12] | 5 | 4 |  |  |  | 5 | 5 | 5 | 4 | 5 | 5 |  |  |  |
| O=C1CCCC(O)=C1C(=O)c1nc2ccccc2n(-c2ccc(Cl)cn2)c1=O [I-177] | 5 | 5 | 5 | 5 | 5 | 5 | 5 | 5 |  |  |  |  |  |  |
| CC1(C)CC(=O)C(C(=O)c2cnc3ccccc3n2)=C(O)C1 [comparative compound C, reference compound] | 3 | 0 |  |  |  |  |  |  | 0 | 0 | 4 | 1 | 2 | 1 |
| CCSCn1c(=O)c(C(=O)C2=C(O)CCCC2=O)nc2ccccc21 [Compound I-72] | 5 | 5 | 5 | 5 | 5 | 5 | 5 | 5 |  |  |  |  |  |  |
| O=C1CCCC(O)=C1C(=O)c1nc2cccnc2n(-c2ccc(OC(F)F)cc2)c1=O [IV-95] | 5 | 5 |  |  |  |  |  |  | 5 | 5 | 5 | 5 | 5 | 5 |
| O=C1CCCC(O)=C1C(=O)c1nc2ccccc2n(-c2ccc(C3CC3)cc2)c1=O [II-33] | 5 | 4 |  |  |  | 5 | 5 | 5 | 5 | 5 | 5 |  |  |  |
